According to PubChem BioAssay AID256 (DTP/NCI, 2004):
Several values for one entry are separate records, joined by “and”; a condition that tells them apart may be missing. Identical values can stand only once. Toxic doses and inconclusive results are not listed.

Test system: CD2F1 mice, L1210 leukemia ip, survival T/C
Assay: NCI In Vivo Anticancer Drug Screen. Data for tumor model L1210 Leukemia (intraperitoneal) in CD2F1 (CDF1) mice
Conditions: higher = longer survival
In short: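 Tumor-bearing mice (transplanted tumor) were split into treated and vehicle control groups, and the measured endpoint of each treated group was divided by that of its vehicle controls.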

Question: What does the source list for `C#CC(C)OCC1CNC(=S)O1` (configuration not stated)?
Answer: T/C (endpoint: mean survival time, dose: 25.0 mg/kg/injection, schedule: Q01DX009 (ip), vehicle: Klucel (hydroxypropylcellulose) (HPC)): 96 % of control; T/C (endpoint: mean survival time, dose: 50.0 mg/kg/injection, schedule: Q01DX009 (ip), vehicle: Klucel (hydroxypropylcellulose) (HPC)): 92 % of control; T/C (endpoint: mean survival time, dose: 100.0 mg/kg/injection, schedule: Q01DX009 (ip), vehicle: Klucel (hydroxypropylcellulose) (HPC)): 94 % of control; T/C (endpoint: mean survival time, dose: 200.0 mg/kg/injection, schedule: Q01DX009 (ip), vehicle: Klucel (hydroxypropylcellulose) (HPC)): 97 % of control; T/C (endpoint: mean survival time, dose: 400.0 mg/kg/injection, schedule: Q01DX009 (ip), vehicle: Klucel (hydroxypropylcellulose) (HPC)): 91 % of control

Question: How did the T/C (endpoint: mean survival time, dose: 100.0 mg/kg/injection, schedule: Q04DX002 (ip), vehicle: saline with Tween-80) turn out when `COc1c(C)c2c(c3c1CCC(C)(CCC(=O)O)O3)C(=O)OC2` (configuration not stated) was run?
Answer: 103 % of control

Question: And the T/C (endpoint: mean survival time, dose: 200.0 mg/kg/injection, schedule: Q04DX002 (ip), vehicle: saline with Tween-80)?
Answer: 108 % of control

Question: And the T/C (endpoint: mean survival time, dose: 400.0 mg/kg/injection, schedule: Q04DX002 (ip), vehicle: saline with Tween-80)?
Answer: 100 % of control

Question: For `CC(C)(C)OC(=O)N/N=C1\CC2CCC1C2` (configuration not stated), which T/C (endpoint: mean survival time, dose: 25.0 mg/kg/injection, schedule: Q01DX009 (ip), vehicle: saline with Tween-80) is on record?
Answer: 107 % of control

Question: `C#CCOCCCC(=O)O` was tested. Which T/C (endpoint: mean survival time, dose: 100.0 mg/kg/injection, schedule: Q04DX003 (ip), vehicle: acetone) did it give?
Answer: 101 % of control

Question: And the T/C (endpoint: mean survival time, dose: 200.0 mg/kg/injection, schedule: Q04DX003 (ip), vehicle: acetone)?
Answer: 101 % of control

Question: What about the T/C (endpoint: mean survival time, dose: 400.0 mg/kg/injection, schedule: Q04DX003 (ip), vehicle: acetone) of the same compound?
Answer: 95 % of control

Question: What does the source list for `c1ccc2c(c1)oc1c3ccccc3c3ccccc3c21`?
Answer: T/C (endpoint: median survival time, dose: 25.0 mg/kg/injection, schedule: Q04DX002 (ip), vehicle: saline with Tween-80): 110 % of control; T/C (endpoint: median survival time, dose: 50.0 mg/kg/injection, schedule: Q04DX002 (ip), vehicle: saline with Tween-80): 90 % of control; T/C (endpoint: median survival time, dose: 100.0 mg/kg/injection, schedule: Q04DX002 (ip), vehicle: saline with Tween-80): 110 % of control; T/C (endpoint: median survival time, dose: 200.0 mg/kg/injection, schedule: Q04DX002 (ip), vehicle: saline with Tween-80): 110 % of control

Question: What does the source list for `Nc1nc(F)nc2c1ncn2C1OC(COP(=O)(O)O)C(O)C1O` (configuration not stated)?
Answer: T/C (endpoint: mean survival time, dose: 6.25 mg/kg/injection, schedule: Q01DX009 (ip), vehicle: saline): 98 % of control; T/C (endpoint: mean survival time, dose: 12.5 mg/kg/injection, schedule: Q01DX009 (ip), vehicle: saline): 104 % of control; T/C (endpoint: mean survival time, dose: 25.0 mg/kg/injection, schedule: Q01DX009 (ip), vehicle: saline): 118 % of control; T/C (endpoint: mean survival time, dose: 50.0 mg/kg/injection, schedule: Q01DX009 (ip), vehicle: saline): 114 % of control; T/C (endpoint: mean survival time, dose: 60.0 mg/kg/injection, schedule: Q01DX009 (ip), vehicle: saline): 124 % of control; T/C (endpoint: mean survival time, dose: 88.98 mg/kg/injection, schedule: Q01DX009 (ip), vehicle: saline with Tween-80): 174 % of control; T/C (endpoint: mean survival time, dose: 90.0 mg/kg/injection, schedule: Q01DX009 (ip), vehicle: saline): 182 % of control; T/C (endpoint: mean survival time, dose: 100.0 mg/kg/injection, schedule: Q01DX009 (ip), vehicle: saline): 171 % of control; T/C (endpoint: mean survival time, dose: 133.0 mg/kg/injection, schedule: Q01DX009 (ip), vehicle: saline): 183 % of control; T/C (endpoint: mean survival time, dose: 133.4 mg/kg/injection, schedule: Q01DX009 (ip), vehicle: saline with Tween-80): 244 % of control; T/C (endpoint: mean survival time, dose: 133.4 mg/kg/injection, schedule: Q01DX009 (ip), vehicle: saline): 180 % of control; T/C (endpoint: mean survival time, dose: 135.0 mg/kg/injection, schedule: Q01DX009 (ip), vehicle: saline): 288 % of control and 156 % of control; T/C (endpoint: mean survival time, dose: 200.0 mg/kg/injection, schedule: Q01DX009 (ip), vehicle: saline with Tween-80): 100 % of control; T/C (endpoint: mean survival time, dose: 200.0 mg/kg/injection, schedule: Q01DX009 (ip), vehicle: saline): 231 % of control [middle of 4 runs]; T/C (endpoint: mean survival time, dose: 219.0 mg/kg/injection, schedule: Q01DX009 (ip), vehicle: saline): 362 % of control; T/C (endpoint: mean survival time, dose: 292.0 mg/kg/injection, schedule: Q01DX009 (ip), vehicle: saline): 98 % of control; T/C (endpoint: median survival time, dose: 32.0 mg/kg/injection, schedule: Q01DX009 (ip), vehicle: saline): 114 % of control and 112 % of control; T/C (endpoint: median survival time, dose: 40.0 mg/kg/injection, schedule: Q03HX024 (ip), vehicle: sodium bicarbonate): 167 % of control; T/C (endpoint: median survival time, dose: 47.0 mg/kg/injection, schedule: Q01DX009 (ip), vehicle: saline): 114 % of control and 111 % of control; T/C (endpoint: median survival time, dose: 56.0 mg/kg/injection, schedule: Q03HX024 (ip), vehicle: sodium bicarbonate): 193 % of control; T/C (endpoint: median survival time, dose: 85.0 mg/kg/injection, schedule: Q03HX024 (ip), vehicle: sodium bicarbonate): 168 % of control; T/C (endpoint: median survival time, dose: 90.0 mg/kg/injection, schedule: Q01DX009 (ip), vehicle: saline): 169 % of control and 185 % of control; T/C (endpoint: median survival time, dose: 98.8 mg/kg/injection, schedule: Q01DX009 (ip), vehicle: saline): 178 % of control; T/C (endpoint: median survival time, dose: 100.0 mg/kg/injection, schedule: Q01DX001 (oral), vehicle: sodium bicarbonate): 101 % of control; T/C (endpoint: median survival time, dose: 100.0 mg/kg/injection, schedule: Q01DX005 (oral), vehicle: sodium bicarbonate): 111 % of control; T/C (endpoint: median survival time, dose: 105.0 mg/kg/injection, schedule: Q01DX009 (ip), vehicle: saline): 172 % of control; T/C (endpoint: median survival time, dose: 110.0 mg/kg/injection, schedule: Q03HX008 (ip), vehicle: sodium bicarbonate): 163 % of control; T/C (endpoint: median survival time, dose: 111.0 mg/kg/injection, schedule: Q01DX009 (ip), vehicle: saline): 159 % of control; T/C (endpoint: median survival time, dose: 118.0 mg/kg/injection, schedule: Q01DX005 (ip), vehicle: sodium bicarbonate): 175 % of control; T/C (endpoint: median survival time, dose: 125.0 mg/kg/injection, schedule: Q03HX024 (ip), vehicle: sodium bicarbonate): 625 % of control; T/C (endpoint: median survival time, dose: 134.0 mg/kg/injection, schedule: Q01DX009 (ip), vehicle: saline): 196 % of control and 202 % of control; T/C (endpoint: median survival time, dose: 148.0 mg/kg/injection, schedule: Q01DX009 (ip), vehicle: saline): 235 % of control; T/C (endpoint: median survival time, dose: 157.0 mg/kg/injection, schedule: Q01DX009 (ip), vehicle: saline): 182 % of control and 283 % of control; T/C (endpoint: median survival time, dose: 167.0 mg/kg/injection, schedule: Q01DX009 (ip), vehicle: saline): 207 % of control; T/C (endpoint: median survival time, dose: 170.0 mg/kg/injection, schedule: Q03HX008 (ip), vehicle: sodium bicarbonate): 190 % of control; T/C (endpoint: median survival time, dose: 175.0 mg/kg/injection, schedule: Q01DX009 (ip), vehicle: saline): 207 % of control; T/C (endpoint: median survival time, dose: 177.0 mg/kg/injection, schedule: Q01DX005 (ip), vehicle: sodium bicarbonate): 216 % of control; T/C (endpoint: median survival time, dose: 177.0 mg/kg/injection, schedule: Q01DX005 (iv), vehicle: sodium bicarbonate): 171 % of control; T/C (endpoint: median survival time, dose: 200.0 mg/kg/injection, schedule: Q01DX001 (oral), vehicle: sodium bicarbonate): 97 % of control; T/C (endpoint: median survival time, dose: 200.0 mg/kg/injection, schedule: Q01DX009 (ip), vehicle: saline): 219 % of control and 198 % of control; T/C (endpoint: median survival time, dose: 200.0 mg/kg/injection, schedule: Q04DX003 (ip), vehicle: sodium bicarbonate): 152 % of control; T/C (endpoint: median survival time, dose: 222.0 mg/kg/injection, schedule: Q01DX009 (ip), vehicle: saline): 297 % of control; T/C (endpoint: median survival time, dose: 225.0 mg/kg/injection, schedule: Q01DX009 (ip), vehicle: saline): 304 % of control; T/C (endpoint: median survival time, dose: 234.0 mg/kg/injection, schedule: Q01DX009 (ip), vehicle: saline): 296 % of control; T/C (endpoint: median survival time, dose: 250.0 mg/kg/injection, schedule: Q01DX009 (ip), vehicle: saline): 197 % of control and 284 % of control; T/C (endpoint: median survival time, dose: 250.0 mg/kg/injection, schedule: Q03HX008 (ip), vehicle: sodium bicarbonate): 198 % of control; T/C (endpoint: median survival time, dose: 266.0 mg/kg/injection, schedule: Q01DX001 (ip), vehicle: sodium bicarbonate): 115 % of control; T/C (endpoint: median survival time, dose: 266.0 mg/kg/injection, schedule: Q01DX005 (ip), vehicle: sodium bicarbonate): 222 % of control; T/C (endpoint: median survival time, dose: 266.0 mg/kg/injection, schedule: Q01DX005 (iv), vehicle: sodium bicarbonate): 195 % of control; T/C (endpoint: median survival time, dose: 300.0 mg/kg/injection, schedule: Q04DX003 (ip), vehicle: sodium bicarbonate): 166 % of control; T/C (endpoint: median survival time, dose: 375.0 mg/kg/injection, schedule: Q01DX009 (ip), vehicle: saline): 151 % of control; T/C (endpoint: median survival time, dose: 400.0 mg/kg/injection, schedule: Q01DX001 (iv), vehicle: sodium bicarbonate): 120 % of control; T/C (endpoint: median survival time, dose: 400.0 mg/kg/injection, schedule: Q01DX001 (oral), vehicle: sodium bicarbonate): 100 % of control; T/C (endpoint: median survival time, dose: 400.0 mg/kg/injection, schedule: Q01DX005 (iv), vehicle: sodium bicarbonate): 91 % of control; T/C (endpoint: median survival time, dose: 450.0 mg/kg/injection, schedule: Q04DX003 (ip), vehicle: sodium bicarbonate): 212 % of control; T/C (endpoint: median survival time, dose: 500.0 mg/kg/injection, schedule: Q01DX009 (ip), vehicle: saline): 94 % of control; T/C (endpoint: median survival time, dose: 670.0 mg/kg/injection, schedule: Q04DX003 (ip), vehicle: sodium bicarbonate): 222 % of control; T/C (endpoint: median survival time, dose: 800.0 mg/kg/injection, schedule: Q01DX001 (oral), vehicle: sodium bicarbonate): 103 % of control; T/C (endpoint: median survival time, dose: 800.0 mg/kg/injection, schedule: Q01DX005 (oral), vehicle: sodium bicarbonate): 150 % of control; T/C (endpoint: median survival time, dose: 1600.0 mg/kg/injection, schedule: Q01DX001 (oral), vehicle: sodium bicarbonate): 113 % of control; T/C (endpoint: median survival time, dose: 1600.0 mg/kg/injection, schedule: Q01DX005 (oral), vehicle: sodium bicarbonate): 175 % of control
